Entries after “also recorded” stand apart in the source; their conditions may differ.
Experiments:
[1] = Compound I monotherapy safety in healthy subjects; format: in vivo, human; details: multiple doses up to 400 mg qd for 10 days
F508del-CFTR [2] = target: T1, F508del-CFTR (Homo sapiens, UniProt P13569, DEL508-508); assay: Membrane potential optical assay (F508del-CFTR correction); format: cell-based; design: expressed in transfected cells; details: NIH3T3 mouse fibroblasts stably expressing F508del, 18-24 hours
From the text: Membrane Potential Optical Methods for Assaying Properties of F508del-CFTR Modulators
An optical assay was employed to measure changes in membrane potential to determine the CFTR modulator properties of compounds. The assay utilized fluorescent voltage sensing dyes to measure changes in membrane potential using a fluorescent plate reader (e.g., FLIPR III, Molecular Devices, Inc.) as a readout for increase in functional F508del in NIH 3T3 cells. The driving force for the response was the creation of a chloride ion gradient in conjunction with channel activation and concurrent with compound treatment by a single liquid addition step after the cells had previously been loaded with a voltage sensing dye.
NIH3T3 mouse fibroblasts stably expressing F508del were used for optical measurements of membrane potential. The cells were maintained at 37° C. in 5% CO2 and 90% humidity in Dulbecco's modified Eagle's medium supplemented with 2 mM glutamine, 10% fetal bovine serum, 1×NEAA, β-ME, 1× pen/strep, and 25 mM HEPES in 175 cm^2 culture flasks. […] The cells were then activated and treated with Compound I. After 18-24 hours, fluorescence from the voltage sensing dye in the cells was measured to assess changes in the membrane potential as a read out for increase in functional F508del CFTR in the NIH3T3 cells.

F508del-CFTR [3] = target: T1, F508del-CFTR; assay: Ussing chamber assay, chloride transport in F508del/F508del-HBE cells; format: cell-based; design: CF-HBE cells were isolated from patients homozygous for F508del (F508del/F508del-HBE); endogenous in cells; host or cells: primary F508del/F508del-HBE cells from bronchial tissue of CF patients
Experimental: Ussing chamber experiments were performed on polarized airway epithelial cells expressing F508del to further characterize the F508del modulators identified in the optical assay above. Non-CF and CF airway epithelia were isolated from bronchial tissue, cultured using methods well known in the art, and plated onto Costar® Snapwell™ filters that were precoated with NIH3T3-conditioned media. After four days the apical media was removed and the cells were grown at an air liquid interface for >14 days prior to use. […] CF-HBE cells were isolated from patients homozygous for F508del (F508del/F508del-HBE) or heterozygous for F508del and a mutation associated with minimal CF transmembrane conductance regulator (CFTR) function (MF) that is not expected to respond to Compound II, Compound III, Compound III-d, and the combination of Compound II and III, or Compound II and III-d (F508del/MF-HBE).
HBE cells grown on Costar® Snapwell™ cell culture inserts were mounted in an Ussing chamber (Physiologic Instruments, Inc., San Diego, Calif.), and the transepithelial resistance and short-circuit current in the presence of a basolateral to apical Cl^− gradient (ISC) were measured using a voltage-clamp system (Department of Bioengineering, University of Iowa, Iowa). Briefly, HBE cells were examined under voltage-clamp recording conditions (Vhold=0 mV) at 37° C. The basolateral solution contained (in mM) 145 NaCl, 0.83 K2HPO4, 3.3 KH2PO4, 1.2 MgCl2, 1.2 CaCl2, 10 Glucose, 10 HEPES (pH adjusted to 7.35 with NaOH) and the apical solution contained (in mM) 145 NaGluconate, 1.2 MgCl2, 1.2 CaCl2, 10 glucose, 10 HEPES (pH adjusted to 7.35 with NaOH).
Ussing Chamber Assay Procedure
A basolateral to apical membrane Cl^− concentration gradient was set up as follows. Normal Ringer's solution was used on the basolateral membrane, whereas apical NaCl was replaced by equimolar sodium gluconate (titrated to pH 7.4 with NaOH) to give a large Cl^− concentration gradient across the epithelium. […] Chloride current was measured to assess the increase in functional CFTR in the cell membrane. […]

[4] = Preclinical reproductive toxicology studies; format: in vivo
F508del-CFTR [5] = target: T1, F508del-CFTR; assay: F508del-CFTR processing and trafficking (170 to 180 kDa band) in F508del/F508del-HBE cells; format: cell-based; design: CF-HBE cells were isolated from patients homozygous for F508del (F508del/F508del-HBE); endogenous in cells; host or cells: primary F508del/F508del-HBE cells from bronchial tissue of CF patients
From the text: The CFTR protein delivered to the cell surface by Compound I alone or in combination with Compound II (Compound I/Compound II) was potentiated by Compound III.

CFTR = target: T2, CFTR (Homo sapiens, UniProt P13569, DEL508-508); assay: CFTR chloride transport in human bronchial epithelial (HBE) cells in vitro (Example 7); format: cell-based
T2 construct: In human bronchial epithelial (HBE) cells studied in vitro; endogenous in cells; host or cells: human bronchial epithelial (HBE) cells
T2 sequence (P13569 with tags, fused parts or gaps DEL508-508): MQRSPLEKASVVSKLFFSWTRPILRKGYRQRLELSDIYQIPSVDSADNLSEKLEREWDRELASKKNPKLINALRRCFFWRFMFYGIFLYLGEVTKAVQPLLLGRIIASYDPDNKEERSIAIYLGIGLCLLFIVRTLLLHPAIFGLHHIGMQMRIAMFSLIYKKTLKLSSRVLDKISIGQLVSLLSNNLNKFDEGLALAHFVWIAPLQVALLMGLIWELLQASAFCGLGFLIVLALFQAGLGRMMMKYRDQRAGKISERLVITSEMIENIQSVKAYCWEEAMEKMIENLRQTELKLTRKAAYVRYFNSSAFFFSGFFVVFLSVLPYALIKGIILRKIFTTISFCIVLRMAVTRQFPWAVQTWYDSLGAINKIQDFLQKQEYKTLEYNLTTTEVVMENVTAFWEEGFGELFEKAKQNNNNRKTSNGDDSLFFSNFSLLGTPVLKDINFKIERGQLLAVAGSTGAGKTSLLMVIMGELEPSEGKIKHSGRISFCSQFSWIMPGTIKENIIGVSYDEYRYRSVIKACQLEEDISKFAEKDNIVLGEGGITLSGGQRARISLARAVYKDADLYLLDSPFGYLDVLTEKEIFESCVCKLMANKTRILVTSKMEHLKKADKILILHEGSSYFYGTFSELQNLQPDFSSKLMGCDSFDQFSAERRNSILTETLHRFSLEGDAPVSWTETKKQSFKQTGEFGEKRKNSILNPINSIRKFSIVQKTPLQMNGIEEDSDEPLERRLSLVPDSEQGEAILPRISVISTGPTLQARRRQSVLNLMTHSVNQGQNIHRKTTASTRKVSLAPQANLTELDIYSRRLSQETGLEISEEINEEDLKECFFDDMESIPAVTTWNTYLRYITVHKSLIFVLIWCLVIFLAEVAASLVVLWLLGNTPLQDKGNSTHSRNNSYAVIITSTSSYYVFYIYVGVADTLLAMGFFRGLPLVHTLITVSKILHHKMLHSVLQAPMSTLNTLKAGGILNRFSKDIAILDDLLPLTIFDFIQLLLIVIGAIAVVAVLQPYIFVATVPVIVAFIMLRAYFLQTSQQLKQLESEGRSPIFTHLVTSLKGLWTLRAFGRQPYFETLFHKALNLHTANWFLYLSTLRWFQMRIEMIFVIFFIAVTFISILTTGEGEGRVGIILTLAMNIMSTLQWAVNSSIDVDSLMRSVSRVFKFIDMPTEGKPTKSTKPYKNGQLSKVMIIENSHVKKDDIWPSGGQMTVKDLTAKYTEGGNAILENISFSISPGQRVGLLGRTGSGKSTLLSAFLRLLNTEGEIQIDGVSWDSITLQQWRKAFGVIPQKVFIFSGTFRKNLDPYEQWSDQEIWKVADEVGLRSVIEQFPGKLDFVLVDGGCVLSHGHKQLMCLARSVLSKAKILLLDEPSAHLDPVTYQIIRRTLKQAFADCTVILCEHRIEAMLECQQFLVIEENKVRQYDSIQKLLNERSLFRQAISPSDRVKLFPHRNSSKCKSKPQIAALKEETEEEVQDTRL

T1 sequence (P13569 with tags, fused parts or gaps DEL508-508): as above

| EC50 (F508del-CFTR [2]) [µM] | Emax (F508del-CFTR [2]; read-out: % Efficacy relative to Compound II) [%] | chloride transport (F508del-CFTR [3]) | effect on chloride transport in relation to the effect of Compound II (F508del-CFTR [3]) | steady-state levels, fold of untreated levels (F508del-CFTR [5]; F508del/F508del-HBE cells, 16 to 24 hours, 1 μM Compound I alone) [fold] | potentiation of F508del-CFTR delivered to the cell surface by Compound I alone or with Compound II (F508del-CFTR [3]) | potentiation of CFTR protein delivered to the cell surface by Compound I alone or with Compound II (CFTR) | Structure (SMILES) | safety and tolerability [1] | reproductive toxicology findings [4] | processing and trafficking of F508del-CFTR (F508del-CFTR [5]; in vitro) |
| --- | --- | --- | --- | --- | --- | --- | --- | --- | --- | --- |
| < 3 | ≥ 100 | enhanced chloride transport | additive to the effect of Compound II | 6.5 |  |  | C[C@@H]1CN(c2nc(-n3ccc(OCCC4(C(F)(F)F)CC4)n3)ccc2C(=O)NS(=O)(=O)c2ccccc2)C(C)(C)C1 [Compound I, N-(benzenesulfonyl)-6-[3-[2-[1-(trifluoromethyl)cyclopropyl]ethoxy]pyrazol-1-yl]-2-[(4(S))-2,2,4-trimethylpyrrolidin-1-yl]pyridine-3-carboxamide] | safe and well tolerated | no adverse findings of note | improved the processing and trafficking of F508del-CFTR; also recorded: facilitates the processing and trafficking of F508del-CFTR |
|  |  |  |  |  | potentiated | potentiated | CC(C)(C)c1cc(C(C)(C)C)c(NC(=O)c2c[nH]c3ccccc3c2=O)cc1O [Compound III, N-(5-hydroxy-2,4-di-tert-butyl-phenyl)-4-oxo-1H-quinoline-3-carboxamide, reference compound] |  |  |  |

Reference: patent publication US11253509B2, “Methods of treatment for cystic fibrosis” (Vertex Pharmaceuticals Incorporated, priority 2017, dated 2022)
